Data: patent publication US10307413B2, “Tetrahydro- and dihydro-isoquinoline PRMT5 inhibitors and uses thereof” (Epizyme, Inc., priority 2013, dated 2019)
Read-outs that look alike come from different tables or passages of the source.

Columns and labels:
[1] = system: symmetric di-methyl arginine in Z-138 cells; assay: Z-138 Methylation Assay (In Cell Western for symmetric di-methyl arginine and DNA content); assay type: cell-based; conditions: read-out: ICW EC50
From the text: [formula] [formula] Where top and bottom are the normally allowed to float, but may be fixed at 100 or 0 respectively in a 3-parameter fit. The Hill Coefficient normally allowed to float but may also be fixed at 1 in a 3-parameter fit. Y is the % inhibition and X is the compound concentration.
RPMI/Glutamax medium, penicillin-streptomycin, heat inactivated fetal bovine serum, and D-PBS were purchased from Life Technologies, Grand Island, N.Y., USA. Odyssey blocking buffer, 800CW goat anti-rabbit IgG (H+L) antibody, and Licor Odyssey infrared scanner were purchased from Licor Biosciences, Lincoln, Nebr., USA. Symmetric di-methyl arginine antibody was purchased from EMD Millipore, Billerica, Mass., USA. 16% Paraformaldehyde was purchased from Electron Microscopy Sciences, Hatfield, Pa., USA.
Cell Treatment, in Cell Western (ICW) for Detection of Symmetric Di-Methyl Arginine and DNA Content.
Z-138 cells were seeded in assay medium at a concentration of 50,000 cells per mL to a 384-well cell culture plate with 50 μL per well. Compound (100 nL) from 384 well source plates was added directly to 384 well cell plate. Plates were incubated at 37° C., 5% CO2 for 96 hours. […] Plates were incubated at room temperature for 30 minutes then incubated at 37° C., 5% CO2 for 5 hours. After the incubation, 40 μL per well of 8% paraformaldehyde in PBS (16% paraformaldahyde was diluted to 8% in PBS) was added to each plate and incubated for 30 minutes. […] Next 30 μL per well of Odyssey blocking buffer were added to each plate and incubated 1 hour at room temperature. Blocking buffer was removed and 20 μL per well of primary antibody was added (symmetric di-methyl arginine diluted 1:100 in Odyssey buffer with 0.1% Tween 20 (v/v)) and plates were incubated overnight (16 hours) at 4° C. Plates were washed 5 times with 100 μL per well of wash buffer. Next 20 μL per well of secondary antibody was added (1:200 800CW goat anti-rabbit IgG (H+L) antibody, 1:1000 DRAQ5 (Biostatus limited) in Odyssey buffer with 0.1% Tween 20 (v/v)) and incubated for 1 hour at room temperature. The plates were washed 5 times with 100 μL per well wash buffer then 1 time with 100 μL per well of water. Plates were allowed to dry at room temperature then imaged on the Licor Odyssey machine which measures integrated intensity at 700 nm and 800 nm wavelengths. Both 700 and 800 channels were scanned.
First, the ratio for each well was determined by:
Each plate included fourteen control wells of DMSO only treatment (minimum inhibition) as well as fourteen control wells for maximum inhibition treated with 3 μM of a reference compound (Background wells). The average of the ratio values for each control type was calculated and used to determine the percent inhibition for each test well in the plate. Reference compound was serially diluted three-fold in DMSO for a total of nine test concentrations, beginning at 3 μM. Percent inhibition was determined and IC50 curves were generated using triplicate wells per concentration of compound. Percent Inhibition=100−

Z-138 cell line = assay: Z-138 Proliferation Assay (Cell Titer Glo, 5 days); assay type: cell-based; conditions: Homo sapiens, read-out: Proliferation EC50
From the text: RPMI/Glutamax medium, penicillin-streptomycin, heat inactivated fetal bovine serum were purchased from Life Technologies, Grand Island, N.Y., USA. V-bottom polypropylene 384-well plates were purchased from Greiner Bio-One, Monroe, N.C., USA. Cell culture 384-well white opaque plates were purchased from Perkin Elmer, Waltham, Mass., USA. Cell-Titer Glo® was purchased from Promega Corporation, Madison, Wis., USA. SpectraMax M5 plate reader was purchased from Molecular Devices LLC, Sunnyvale, Calif., USA.
A compound source plate was prepared by performing triplicate nine-point 3-fold serial dilutions in DMSO, beginning at 10 mM (final top concentration of compound in the assay was 20 μM and the DMSO was 0.2%). A 100 nL aliquot from the compound stock plate was added to its respective well in the cell plate. […] After addition of compounds, assay plates were incubated for 5 days at 37° C., 5% CO2, relative humidity >90%.
Cell viability was measured by quantitation of ATP present in the cell cultures, adding […] of Cell Titer Glo® reagent to the cell plates. Luminescence was read in the SpectraMax M5 microplate reader. The concentration of compound inhibiting cell viability by 50% was determined using a 4-parametric fit of the normalized dose response curves.

Row | SMILES | EC50 ([1]; Homo sapiens) [nM] | EC50 (Z-138 cell line; 120 h, Z-138 cells, 5 days) [nM] | EC50 (Z-138 cell line; Z-138, 120 h) [nM] | EC50 [1] [nM]
1 | NC(=O)CNCc1cccc(C(=O)NCC(O)CN2CCc3ccccc3C2)c1 (stereo not drawn) [Compound 116] | 101 to 1000 | > 20000 | – | –
2 | O=C(NCC(O)CN1CCc2ccccc2C1)c1ccnc(NC2CCOCC2)c1 (stereo not drawn) [Compound 74] | < 100 | 101 to 1000 | – | –
3 | CN1CCC(Oc2ccc(C(=O)NCC(O)CN3CCc4ccccc4C3)cc2)CC1 (stereo not drawn) [Compound 105] | < 100 | 1000 to 10000 | – | –
4 | O=C(NCC(O)CN1CCc2ccccc2C1)c1cn[nH]c1-c1ccccc1 (stereo not drawn) [Compound 112] | 1000 to 10000 | > 20000 | – | –
5 | COc1ccc2oc(C(=O)NC[C@H](O)CN3CCc4ccccc4C3)cc2c1 [Compound 250] | < 100 | 1000 to 10000 | – | –
6 | O=C(NC[C@H](O)CN1CCc2ccccc2C1)c1ccc2ncccc2c1 [Compound 220] | < 100 | 101 to 1000 | – | –
7 | CC(=O)N(C)CCN(C)c1cc(C(=O)NC[C@H](O)CN2CCc3ccccc3C2)ccn1 [Compound 291] | < 100 | 1000 to 10000 | – | –
8 | CC1CC(Nc2cccc(C(=O)NC[C@@H](O)CN3CCc4ccccc4C3)c2)CC(C)O1 (stereo partly drawn) [Compound 153] | < 100 | 101 to 1000 | – | –
9 | O=C(NC[C@H](O)CN1CCc2ccccc2C1)c1ccnc(NCC2CNCCO2)c1 (stereo partly drawn) [Compound 238] | 101 to 1000 | 10000 to 50000 | – | –
10 | O=C(NCC(O)CN1CCc2ccccc2C1)c1cncc(NC2CCOCC2)n1 (stereo not drawn) [Compound 75] | 101 to 1000 | – | – | –
11 | O=C(NCC(O)CN1CCc2ccccc2C1)c1ccc(NC2CCN(CC(F)(F)F)CC2)cc1 (stereo not drawn) [Compound 128] | < 100 | 1000 to 10000 | – | –
12 | O=C(NC[C@H](O)CN1CCc2ccccc2C1)c1ccnc(NCc2ccccn2)c1 [Compound 191] | < 100 | 101 to 1000 | – | –
13 | CC(=O)N1CCC(Oc2cc(C(=O)NC[C@H](O)CN3CCc4ccccc4C3)ccn2)CC1 [Compound 205] | < 100 | 101 to 1000 | – | –
14 | CN(c1cc(C(=O)NC[C@H](O)CN2CCc3ccccc3C2)ccn1)C1CCOCC1 [Compound 324] | < 100 | 101 to 1000 | – | –
15 | O=C1COc2cc(C(=O)NCC(O)CN3CCc4ccccc4C3)ccc2N1 (stereo not drawn) [Compound 89] | 101 to 1000 | > 20000 | – | –
16 | CC(=O)N1CCC(Nc2cccc(C(=O)NC[C@H](O)CN3CCc4ccccc4C3)c2)CC1 [Compound 215] | < 100 | < 100 | – | –
17 | COCCCNc1cccc(C(=O)NCC(O)CN2CCc3ccccc3C2)c1 (stereo not drawn) [Compound 69] | 1000 to 10000 | > 20000 | – | –
18 | Cn1cc(C(=O)NC[C@H](O)CN2CCc3ccccc3C2)c2ccccc21 [Compound 246] | 101 to 1000 | – | 1000 to 10000 | –
19 | CS(=O)(=O)N1CCC(Oc2cc(C(=O)NC[C@H](O)CN3CCc4ccccc4C3)ccn2)CC1 [Compound 204] | < 100 | 101 to 1000 | – | –
20 | O=C(NC[C@H](O)CN1CCc2ccccc2C1)c1ccnc(NCC2CCCNC2)c1 (stereo partly drawn) [Compound 236] | 101 to 1000 | 1000 to 10000 | – | –
21 | O=C(NC[C@H](O)CN1CCc2ccccc2C1)c1cnc2ccccc2n1 [Compound 245] | 101 to 1000 | 10000 to 50000 | – | –

Row | SMILES | EC50 ([1]; Homo sapiens) [nM] | EC50 (Z-138 cell line; 120 h, Z-138 cells, 5 days) [nM] | EC50 (Z-138 cell line; Z-138, 120 h) [nM] | EC50 [1] [nM]
22 | O=C(NCC(O)CN1CCc2ccccc2C1)c1ccc(OC2CCN(CC(F)(F)F)CC2)cc1 (stereo not drawn) [Compound 109] | < 100 | 101 to 1000 | – | –
23 | CNCCN(C)c1cc(C(=O)NC[C@H](O)CN2CCc3ccccc3C2)ccn1 [Compound 233] | 101 to 1000 | 1000 to 10000 | – | –
24 | O=C(NCC(O)CN1CCc2ccccc2C1)c1ccnc(NC2CCOCC2)n1 (stereo not drawn) [Compound 62] | 101 to 1000 | 10000 to 50000 | – | –
25 | O=C(NCC(O)CN1CCc2ccccc2C1)c1cccc(NC2CCN(CC(F)(F)F)CC2)c1 (stereo not drawn) [Compound 126] | < 100 | 1000 to 10000 | – | –
26 | O=C(NC[C@H](O)CN1CCc2ccccc2C1)c1ccnc(NCC2CCNCC2)c1 [Compound 235] | 101 to 1000 | > 20000 | – | –
27 | CC(=O)N1CC[C@@H](Nc2cccc(C(=O)NC[C@H](O)CN3CCc4ccccc4C3)c2)C1 [Compound 293] | < 100 | < 100 | – | –
28 | O=C(NCC(O)CN1CCc2ccccc2C1)c1cccc(OC2CCNC2)c1 (stereo not drawn) [Compound 119] | 101 to 1000 | 1000 to 10000 | – | –
29 | COCCN1CCC(Oc2ccc(C(=O)NC[C@H](O)CN3CCc4ccccc4C3)cc2)CC1 [Compound 329] | < 100 | 101 to 1000 | – | –
30 | CN1CCC(Nc2cc(C(=O)NC[C@H](O)CN3CCc4ccccc4C3)ccn2)C1 (stereo partly drawn) [Compound 255] | < 100 | 1000 to 10000 | – | –
31 | O=C(NC[C@H](O)CN1CCc2ccccc2C1)c1nc2cc(Br)ccc2[nH]1 [Compound 319] | < 100 | 1000 to 10000 | – | –
32 | COCCNc1cccc(C(=O)NCC(O)CN2CCc3ccccc3C2)c1 (stereo not drawn) [Compound 72] | 1000 to 10000 | – | – | –
33 | O=C(NCC(O)CN1CCc2ccccc2C1)c1cccc(NC2CCOC2)c1 (stereo not drawn) [Compound 45, N-(3-(3,4-dihydroisoquinolin-2(1H)-yl)-2-hydroxypropyl)-3-((tetrahydrofuran-3-yl)amino)benzamide] | 101 to 1000 | – | – | –
34 | O=C(NC[C@@H](O)CN1CCc2ccccc2C1)Oc1ccccc1 [Compound 11, (R)-phenyl (3-(3,4-dihydroisoquinolin-2(1H)-yl)-2-hydroxypropyl)carbamate] | 1000 to 10000 | – | – | –
35 | O=C(NCC(O)CN1CCc2ccccc2C1)c1cccc(NCCN2CCOCC2)c1 (stereo not drawn) [Compound 61] | 101 to 1000 | – | – | –
36 | CC1=NN(c2ccc(C(=O)NCC(O)CN3CCc4ccccc4C3)cc2)C(=O)C1 (stereo not drawn) [Compound 86] | 1000 to 10000 | – | – | –
37 | O=C(O)CCCN1CCN(Cc2cccc(C(=O)NCC(O)CN3CCc4ccccc4C3)c2)CC1 (stereo not drawn) [Compound 158] | – | > 20000 | – | –
38 | O=C(NC[C@@H](O)CN1CCc2ccccc2C1)c1cccc(OC2CCOCC2)c1 [Compound 83] | 101 to 1000 | – | – | –
39 | O=C(NC[C@@H](O)CN1CCc2ccccc2C1)c1cc(NC2COC2)ncn1 [Compound 367] | – | – | – | 101 to 1000
40 | O=C(NCC(O)CN1CCc2ccccc2C1)c1nccc(NC2CCOCC2)n1 (stereo not drawn) [Compound 76] | 101 to 1000 | – | – | –
41 | O=C(NC[C@H](O)CN1CCc2ccccc2C1)c1cccc(NC2CCOCC2)c1 [Compound 44, (S)—N-(3-(3,4-dihydroisoquinolin-2(1H)-yl)-2-hydroxypropyl)-3-((tetrahydro-2H-pyran-4-yl)amino)benzamide] | – | 101 to 1000 | – | –
42 | CN1CCC(Oc2cccc(C(=O)NCC(O)CN3CCc4ccccc4C3)c2)C1 (stereo not drawn) [Compound 134] | – | 10000 to 50000 | – | –
